Each compound was assayed on THP-1 CD14 (assay: THP-1 CD14 Screening Assay). Conditions: Homo sapiens, THP-1, 72 h, THP-1 cells treated with PMA and compound (5-point 10-fold dilution), human CD14 ELISA on media.
Assay type: cell-based
Experimental: THP-1 CD14 Screening Assay Protocol:
5×10^4 THP-1 cells were plated per well in a tissue culture-treated 96-well plate. At the time of plating, cells were treated with a final concentration of […] PMA and 0.04% DMSO vehicle, concominant with compounds in a 5-point 10-fold dilution per compound. Cells were treated with PMA and DMSO as a control for differentiation without compound treatment, and with only DMSO as a control for no differentiation and no compound treatment. 500 nM IACS-71432 was added as a control compound across all assay plates.
After incubation at 37° C./5% CO2 for 72 hr, media was collected from the cells and the screening assay was performed using the commercially-available human CD14 SimpleStep ELISA kit from Abcam, according to the following protocol: • 1) ELISA kits were taken out to equilibrate to rt. • 2) Following the protocol listed in the kit, standards were prepared as 1:1 dilutions from 2 ng/ml. • 3) Following the protocol listed in the kit, antibody cocktail was prepared (the volume is contingent on the number of wells required). • 4) 50 μl of standards were added to the appropriate wells, thoroughly mizing the standards before adding to each well. • 5) 25 μl of Sample Diluent (from kit) was added to all sample wells. • 6) Cell plates were centrifuged for 5 min at 300 rcf, with slow acceleration and slow deceleration. • 7) 25 μl of media from cell plates was transferred to assay plates containing standards. • 8) 50 μl of antibody cocktail was added to all of the wells, standards and samples. • 9) Assay plates were sealed tightly and incubated on the plate shaker at 400 rpm for 1 hr at rt. • 10) Wash buffer was prepared following the protocol listed in the kit. • 11) After the hour incubation, assay plates were washed 5 times using 200 μl wash buffer per well per wash. • 12) 100 μl of TMB substrate was added to each well in the dark and incubated on the shaker for 3-4.min, at which point color development was monitored to ensure a robust signal for detection but to avoid oversaturation of signal, for no longer than 10 min. • 13) The absorbance at 607 nm was read on a Perkin Elmer Envision plate reader. • 14) Data was processed using Microsoft Excel and GraphPad Prism.

SMILES	IC50
O=S(=O)(NCc1ccncc1)c1ccc(C2=CCOCC2)cc1 [Example 12, 4-(3,6-dihydro-2H-pyran-4-yl)-N-(pyridin-4-ylmethyl)-benzenesulfonamide]	5 to 100 nM
CC1(C)CCN(c2ccc(S(=O)(=O)NCc3ccncc3)cc2)C1 [Example 26, 4-(3,3-dimethylpyrrolidin-1-yl)-N-(pyridin-4-yl-methyl)benzenesulfonamide]	5 to 100 nM
CC1CCN(c2ccc(S(=O)(=O)NCc3ccncc3)cc2)C1 (stereo not shown) [Example 28, 4-(3-methylpyrrolidin-1-yl)-N-(pyridin-4-ylmethyl)-benzenesulfonamide]	5 to 100 nM
O=c1[nH]c2cc(-c3ccc(S(=O)(=O)NCc4ccncc4)cc3)ccc2o1 [Example 61, 4-(2-oxo-2,3-dihydro-benzo[d]oxazol-5-yl)-N-(pyridin-4-ylmethyl)-benzenesulfonamide]	5 to 100 nM
O=C1NCCc2ccc(-c3ccc(S(=O)(=O)NCc4ccncc4)cc3)cc21 [Example 56, 4-(1-oxo-1,2,3,4-tetrahydroisoquinolin-7-yl)-N-(pyridin-4-ylmethyl)-benzenesulfonamide]	5 to 100 nM
CN1CC=C(c2ccc(S(=O)(=O)NCc3ccncc3)cc2)CC1 [Example 13, 4-(1-methyl-1,2,3,6-tetrahydropyridin-4-yl)-N-(pyridin-4-ylmethyl)-benzenesulfonamide]	100 to 500 nM
O=S(=O)(NCc1ccncc1)c1ccc(N2CCCCC2)cc1 [Example 22, 4-(piperidin-1-yl)-N-(pyridin-4-ylmethyl)-benzenesulfonamide]	5 to 100 nM
O=S(=O)(NCc1ccncc1)c1ccc(C2CCOC2)cc1 (stereo not shown) [Example 19, N-(pyridin-4-ylmethyl)-4-(tetrahydrofuran-3-yl)-benzenesulfonamide]	5 to 100 nM
O=S1(=O)CCC(c2ccc(S(=O)(=O)NCc3ccncc3)cc2)CC1 [Example 18, 4-(1,1-dioxotetrahydro-2H-thiopyran-4-yl)-N-(pyridin-4-ylmethyl)-benzenesulfonamide]	> 500 nM
O=c1[nH]c2ccc(-c3ccc(S(=O)(=O)NCc4ccncc4)cc3)cc2o1 [Example 62, 4-(2-oxo-2,3-dihydro-benzo[d]oxazol-6-yl)-N-(pyridin-4-ylmethyl)-benzenesulfonamide]	100 to 500 nM
O=S(=O)(NCc1ccncc1)c1ccc(N2CC3(CCC3)C2)cc1 [Example 33, N-(pyridin-4-ylmethyl)-4-(2-azaspiro[3.3]heptan-2-yl)benzenesulfonamide]	5 to 100 nM
O=S(=O)(NCc1ccncc1)c1ccc(N2CCC(F)(F)CC2)cc1 [Example 23, 4-(4,4-difluoropiperidin-1-yl)-N-(pyridin-4-ylmethyl)-benzenesulfonamide]	5 to 100 nM
CN1CCN(c2ccc(S(=O)(=O)NCc3ccncc3)cc2)CC1 [Example 3, 4-(4-methylpiperazin-1-yl)-N-(pyridin-4-ylmethyl)benzenesulfonamide]	100 to 500 nM
O=S(=O)(NCc1ccncc1)c1ccc(-c2cccc(Cl)n2)cc1 [Example 5, 4-(6-chloropyridin-2-yl)-N-(pyridin-4-ylmethyl)benzenesulfonamide]	100 to 500 nM
O=S(=O)(NCc1ccncc1)c1ccc(-c2ccncc2)cc1 [Example 38, 4-(pyridin-4-yl)-N-(pyridin-4-ylmethyl)benzenesulfonamide]	5 to 100 nM
O=S(=O)(NCc1ccncc1)c1ccc(-c2ccc3ncnc(O)c3c2)cc1 [Example 54, 4-(4-hydroxyquinazolin-6-yl)-N-(pyridin-4-ylmethyl)-benzenesulfonamide]	100 to 500 nM
CC1(C)CN(c2ccc(S(=O)(=O)NCc3ccncc3)cc2)C1 [Example 32, 4-(3,3-dimethylazetidin-1-yl)-N-[(pyridin-4-yl)methyl]benzene-1-sulfonamide]	5 to 100 nM
CC(=O)N1CCC(c2ccc(S(=O)(=O)NCc3ccncc3)cc2)C1 (stereo not shown) [Example 21, 4-(1-acetylpyrrolidin-3-yl)-N-(pyridin-4-ylmethyl)-benzenesulfonamide]	> 500 nM
O=c1[nH]ccc2cc(-c3ccc(S(=O)(=O)NCc4ccncc4)cc3)ccc12 [Example 50, 4-(1-oxo-1,2-dihydro-isoquinolin-6-yl)-N-(pyridin-4-ylmethyl)-benzenesulfonamide]	100 to 500 nM

Second part, the compound after the results:

IC50	SMILES
< 5 nM	O=S(=O)(NCc1ccncc1)c1ccc(-c2ncccc2Cl)cc1 [Example 43, 4-(3-chloropyridin-2-yl)-N-(pyridin-4-ylmethyl)-benzenesulfonamide]
< 5 nM	O=S(=O)(NCc1ccnc(F)c1)c1ccc(C2CCCCC2)cc1 [Example 8, 4-cyclohexyl-N-((2-fluoropyridin-4-yl)methyl)benzenesulfonamide]
< 5 nM	O=S(=O)(NCc1ccncc1)c1ccc(C2CCOCC2)cc1 [Example 16, N-(pyridin-4-ylmethyl)-4-(tetrahydro-2H-pyran-4-yl)-benzenesulfonamide]
< 5 nM	Cc1cc(-c2ccc(S(=O)(=O)NCc3ccncc3)cc2)ccn1 [Example 40, 4-(2-methylpyridin-4-yl)-N-(pyridin-4-ylmethyl)-benzenesulfonamide]
< 5 nM	O=S(=O)(NCc1ccncc1)c1ccc(-c2ccc3ccoc3c2)cc1 [Example 51, 4-(benzofuran-6-yl)-N-(pyridin-4-ylmethyl)-benzenesulfonamide]
< 5 nM	Cc1nc2cc(-c3ccc(S(=O)(=O)NCc4ccncc4)cc3)ccc2o1 [Example 47, 4-(2-methyl-benzo[d]oxazol-5-yl)-N-(pyridin-4-ylmethyl)-benzenesulfonamide]
< 5 nM	O=S(=O)(Nc1cccc2cnccc12)c1ccc(C2CCCCC2)cc1 [Example 6, 4-Cyclohexyl-N-(isoquinolin-5-yl)benzenesulfonamide]
< 5 nM	Cc1cnccc1-c1ccc(S(=O)(=O)NCc2ccncc2)cc1 [Example 39, 4-(3-methylpyridin-4-yl)-N-(pyridin-4-ylmethyl)-benzenesulfonamide]
< 5 nM	O=S(=O)(NCc1ccncc1)c1ccc(N2CCC3(CC2)CC3)cc1 [Example 35, N-(pyridin-4-ylmethyl)-4-(6-azaspiro[2.5]octan-6-yl)-benzenesulfonamide]
< 5 nM	O=S(=O)(NCc1ccncc1)c1ccc(C2CCCOC2)cc1 (stereo not shown) [Example 17, N-(pyridin-4-ylmethyl)-4-(tetrahydro-2H-pyran-3-yl)-benzenesulfonamide]
< 5 nM	O=S(=O)(NCc1ccncc1)c1ccc(-c2ccc3ncoc3c2)cc1 [Example 45, 4-(benzo[d]oxazol-6-yl)-N-(pyridin-4-ylmethyl)-benzenesulfonamide]
< 5 nM	O=S(=O)(NCc1ccncc1)c1ccc(C2=CCC(F)(F)CC2)cc1 [Example 14, 4′,4′-difluoro-N-(pyridin-4-ylmethyl)-2′,3′,4′,5′-tetrahydro-[1,1′-biphenyl]-4-sulfonamide]
< 5 nM	O=S(=O)(NCc1ccncc1)c1ccc(-c2ccc3c(c2)OCO3)cc1 [Example 53, 4-(benzo[d][1,3]dioxol-5-yl)-N-(pyridin-4-ylmethyl)-benzenesulfonamide]
< 5 nM	CC1(C)CCC(c2ccc(S(=O)(=O)NCc3ccncc3)cc2)CC1 [Example 20, 4-(4,4-dimethyl-cyclohexyl)-N-(pyridin-4-ylmethyl) benzenesulfonamide]
< 5 nM	O=S(=O)(NCc1ccncc1)c1ccc(-c2ccc3c(c2)OCCO3)cc1 [Example 55, 4-(2,3-dihydrobenzo[b]-[1,4]dioxin-6-yl)-N-(pyridin-4-ylmethyl)-benzenesulfonamide]
< 5 nM	O=S(=O)(NCc1ccncc1)c1ccc(-c2ccc3cccnc3c2)cc1 [Example 52, N-(pyridin-4-ylmethyl)-4-(quinolin-7-yl)benzenesulfonamide]
< 5 nM	Cn1ncc2cc(-c3ccc(S(=O)(=O)NCc4ccncc4)cc3)ccc21 [Example 44, 4-(1-methyl-1H-indazol-5-yl)-N-(pyridin-4-ylmethyl)-benzenesulfonamide]
< 5 nM	Cc1ccnc(-c2ccc(S(=O)(=O)NCc3ccncc3)cc2)c1 [Example 41, 4-(4-methylpyridin-2-yl)-N-(pyridin-4-ylmethyl)-benzenesulfonamide]
< 5 nM	CC1(C)CCN(c2ccc(S(=O)(=O)NCc3ccncc3)cc2)CC1 [Example 36, 4-(4,4-dimethylpiperidin-1-yl)-N-(pyridin-4-ylmethyl)-benzenesulfonamide]

Same assay, conditions: THP-1 cells treated with PMA and compound (5-point 10-fold dilution), 72 hr; human CD14 ELISA on media

IC50	SMILES
< 5 nM	Cc1nc2cc(-c3ccc(S(=O)(=O)NCc4ccncc4)cc3)ccc2s1 [49 (a), 4-(2-methyl-benzo[d]thiazol-5-yl)-N-(pyridin-4-ylmethyl)-benzenesulfonamide]
< 5 nM	O=S(=O)(NCc1ccncc1)c1ccc(N2CCCC(F)(F)C2)cc1 [Example 31, 4-(3,3-difluoropiperidin-1-yl)-N-(pyridin-4-ylmethyl)-benzenesulfonamide]

Source: US20240043384A1, “INHIBITORS OF PU.1 FOR THE TREATMENT OF DISEASE” (Board of Regents, The University of Texas System, priority 2021, published 2024)
